This assay concerns Enterobacter agglomerans AJ13601 strain. In words: Growth inhibition by organic acid at acidic pH (main culture in jar fermenter). As to conditions: for Growth inhibition: organic acid 0.5 g/L in main culture medium, pH 4.5, 34° C. Type of assay: cell-based. As to the method:
Therefore, an experiment concerning the growth inhibition by an organic acid was performed at an acidic pH.
The Enterobacter agglomerans AJ13601 strain was cultured on LBG agar medium (10 g/L of trypton, 5 g/L of yeast extract, 10 g/L of NaCl and 15 g/L of agar) containing 25 mg/L of tetracycline hydrochloride and 25 mg/L of chloramphenicol at 30° C. for 14 hours, and one platinum loop of the cells were taken and inoculated into 300 mL of a seed culture medium having the following composition in a 1 L-volume jar fermenter to perform seed culture at 34° C. at pH 6.0.
50 g/L of sucrose, 0.4 g/L of magnesium sulfate heptahydrate, 4.0 g/L of ammonium sulfate, 2.0 g/L of monopotassium dihydrogenphosphate, 4.0 g/L of yeast extract, 0.01 g/L of ferrous sulfate heptahydrate, 0.01 g/L manganese sulfate pentahydrate, 0.4 g/L of L-lysine hydrochloride, 0.4 g/L of DL-methionine, 0.4 g/L of DL-α,ε-diaminopimelic acid, 25 mg/L of tetracycline hydrochloride and 25 mg/L of chloramphenicol
pH was controlled by adding ammonia gas during the culture. The seed culture was terminated by observing depletion of the saccharide in the seed culture medium as a marker, and the seed culture broth was inoculated into 300 mL of a main culture medium contained in 1 L-volume jar fermenters in an amount of 20% of the volume of the main culture medium to perform the main culture. The composition of the main culture medium is shown below. When an experiment for the growth inhibition by an organic acid is performed, the experiment was performed by adding the organic acid at a predetermined concentration.
20 g/L of glucose, 0.4 g/L of magnesium sulfate heptahydrate, 5.0 g/L of ammonium sulfate, 6.0 g/L of monopotassium dihydrogenphosphate, 1.5 g/L of sodium chloride, 0.01 g/L of ferrous sulfate heptahydrate, 0.01 g/L of manganese sulfate pentahydrate, 0.8 g/L of L-lysine hydrochloride, 0.6 g/L of DL-methionine, 0.6 g/L of DL-α,ε-diaminopimelic acid, 25 mg/L of tetracycline hydrochloride, 25 mg/L of chloramphenicol, 6.0 g/L of yeast extract and 0.75 g/L of calcium chloride dihydrate
The culture temperature was adjusted to 34° C., and pH was controlled to a predetermined pH by adding ammonia gas.
Experiments for the growth inhibition effect at an acidic pH (pH 4.5) were first performed with various organic acids.

These results are taken from patent publication US6653110B2 (Ajinomoto Co., Inc., priority 2001, dated 2003).

On to `O=C(O)CC(O)C(=O)O` (stereo not drawn) [malic acid], for which the Growth inhibition result is given as “did not show growth inhibition”.
In the case of `CC(=O)O` [Acetic acid], the Growth inhibition result was “Observed”. Besides, the Growth inhibition result (listed as acetic acid) is recorded as “evident growth inhibition”.
On to `CCC(=O)O` [Propionic acid], for which the Growth inhibition result is “Observed”. In addition, the Growth inhibition result (listed as propionic acid) was “evident growth inhibition”.
Consider `O=C(O)/C=C/C(=O)O` [fumaric acid], for which the Growth inhibition result is reported as “did not show growth inhibition”.
As to `O=CO` [Formic acid], the Growth inhibition result is “Observed”. The growth of cells entry (formic acid 0.5 g/L, pH 4.5 (FIG. 11)) is given as “hardly observed”. Further, the “pH region in which growth inhibition by formic acid was not observed” value (formic acid concentration 0.5 g/L, inhibition observed at lower pH (FIG. 11)) was ≥ 5.5. Further, where the note is “listed as formic acid”, the Growth inhibition result is reported as “evident growth inhibition”. In addition, for the setting “pH 4.5 (FIG. 12)”, the “formic acid concentration in the medium at which growth inhibition was not observed” value is listed as ≤ 0.20 g/L.
With `O=C(O)CCC(=O)O` [Succinic acid], the Growth inhibition entry was “Not observed”. Under “listed as succinic acid”, the Growth inhibition result is “did not show growth inhibition”.
Consider `CC(O)C(=O)O` (stereo not drawn) [Lactic acid], for which the Growth inhibition result was “Not observed”. For the setting “listed as lactic acid”, the Growth inhibition result was “growth rate comparable to that obtained with the control medium”.
